Assay [1] concerns NCI-H292 lung cancer cells. The assay is described as follows: FDA drug screening, complete media vs cholesterol-free media without statin (TABLE 1). It counts as cell-based, human.
In assay [2] the test system is NCI-H292 lung cancer cells. The assay is described as follows: FDA drug screening, complete media vs cholesterol-free media with simvastatin (TABLE 2). The assay is classed as cell-based, human.
Setting [3] is: Complete minus Cholesterol-free, greater than 0 enhanced anti-cancer activity, about 0 neutral, below 0 antagonist.
Where [4] appears, read: NCI-H292 cells, FDA drug library screen, cholesterol-free media without statin.
[5] abbreviates: NCI-H292 cells, FDA drug library screen, complete media.
The mark [6] stands for this setting: NCI-H292 cells, cholesterol-free media with simvastatin 0.04 μM, FDA drug library screen (TABLE 2).
The mark [7] stands for this setting: NCI-H292 cells, complete media, FDA drug library screen (TABLE 2).
Setting [8] is: complete media minus cholesterol-free media + simvastatin (0.04 μM), >0 enhanced anti-cancer activity, about 0 neutral, <0 antagonist.
The mark [9] stands for this setting: NCI-H292 cells, cholesterol-free media without statin.
Where [10] appears, read: complete vs cholesterol-free media, greater than 0 enhanced anti-cancer activity, about 0 neutral, below 0 antagonists.
Where [11] appears, read: NCI-H292 cells, FDA drug library screen, cholesterol-free media with simvastatin 0.04 μM.
Setting [12] is: complete media vs cholesterol-free media + simvastatin (0.04 μM), >0 enhanced anti-cancer activity, about 0 neutral, <0 antagonist.
The mark [13] stands for this setting: Complete minus Cholesterol-free, >0 enhanced anti-cancer activity, about 0 neutral, <0 antagonist.
The mark [14] stands for this setting: NCI-H292 cells, drug in cholesterol-free media with simvastatin 0.04 μM.
Where [15] appears, read: NCI-H292 cells, drug in complete media.
Setting [16] is: NCI-H292 cells, cholesterol-free media with simvastatin 0.04 μM, cell growth value in FDA drug screen.
[17] abbreviates: NCI-H292 cells, complete media, cell growth value in FDA drug screen.
The mark [18] stands for this setting: complete media minus cholesterol-free media + simvastatin, >0 enhanced anti-cancer activity, about 0 neutral, <0 antagonist.
The mark [19] stands for this setting: NCI-H292 cells, FDA library drug in cholesterol-free media with simvastatin 0.04 μM.
[20] abbreviates: NCI-H292 cells, FDA library drug in complete media.
[21] abbreviates: NCI-H292 cells, cholesterol-free media without statin, FDA drug library screen.
The mark [22] stands for this setting: NCI-H292 cells, complete media, FDA drug library screen.

Structures can show the parent of a compound that is named as a salt. Where two headings read alike, the source gives them in different places.

Turning to `O=C(O)CC(O)(CC(=O)O)C(=O)O` [Citric acid], the Difference is reported as −0.17 in assay [1] (setting [3]) and −0.02 in assay [2] (setting [8]). For the same compound, the Cholesterol-free in assay [1] (setting [4]) is 0.92. Moreover, the Complete in assay [1] (setting [5]) is given as 0.7466. Further, in assay [2] (setting [6]), the “Cholesterol-free media + simvastatin (0.04 μM)” value amounted to 1.227. In assay [2] (setting [7]), the “Complete Media” value is recorded as 1.209.

For Prucalopride (succinate), in assay [1] (setting [9]), the Cholesterol-free was 1.329. In assay [1] (NCI-H292 cells, complete media), this compound yielded a Complete of 0.905. In addition, the values for the Difference in assay [1] (setting [10]) and in assay [2] (setting [12]) were −0.42 and −0.12, respectively. In addition, the “Cholesterol-free media + simvastatin (0.04 μM)” value in assay [2] (setting [11]) stood at 1.172. For the same compound, the “Complete Media” value in assay [2] (setting [5]) is recorded as 1.048.

For the compound `CCc1ccc(CCOc2ccc(CC3SC(=O)NC3=O)cc2)nc1` (stereo not shown) [Pioglitazone (hydrochloride)], the figures for the Difference in assay [1] (setting [13]) and in assay [2] (setting [12]) were −0.30 and −0.25, respectively. This compound also came in with a Cholesterol-free in assay [1] (setting [9]) of 1.265. For the same compound, the Complete in assay [1] (NCI-H292 cells, complete media) was found to be 0.9669. Moreover, the “Cholesterol-free media + simvastatin (0.04 μM)” value in assay [2] (setting [14]) came out at 1.247. In addition, in assay [2] (setting [15]), the “Complete Media” value is recorded as 1.002.

In turn, `O=c1ccc2ccc(OCCCCN3CCN(c4cccc5sccc45)CC3)cc2[nH]1` [Brexpiprazole] returned a Cholesterol-free in assay [1] (setting [9]) of 0.9917. In assay [1] (NCI-H292 cells, complete media), this compound gave a Complete of 0.6405. For the same compound, the figures for the Difference in assay [1] (setting [10]) and in assay [2] (setting [18]) were −0.35 and 0.13, respectively. In assay [2] (setting [16]), the “Cholesterol-free media + simvastatin (0.04 μM)” value worked out at 0.8945. Besides, in assay [2] (setting [17]), the “Complete Media” value stood at 1.024.

As to `CCN(CC)C(=O)c1ccc(O)c(OC)c1` [Etamivan], the Difference is listed as −0.50 in assay [1] (Complete minus Cholesterol-free, greater than 0 enhanced anti-cancer activity, about 0 neutral, below 0 antagonists) and −0.31 in assay [2] (setting [12]). Also, the Cholesterol-free in assay [1] (NCI-H292 cells in cholesterol-free media without statin) is 1.483. This compound also registered a Complete in assay [1] (NCI-H292 cells in complete media) of 0.9848. Moreover, the “Cholesterol-free media + simvastatin (0.04 μM)” value in assay [2] (setting [19]) was found to be 1.227. Further, in assay [2] (setting [20]), the “Complete Media” value is on record as 0.9141.

In assay [1] (setting [9]), Octreotide (acetate) displayed a Cholesterol-free of 1.157. In assay [1] (NCI-H292 cells, complete media), the Complete turned out to be 0.7258. For the same compound, the Difference in assay [1] (complete vs cholesterol-free media, […]) is recorded as −0.43; in assay [2] (complete media minus cholesterol-free media + simvastatin, […]), 0.17. Further, the “Complete Media” value in assay [2] (setting [5]) was found to be 1.58.

For the compound `O=c1cccc2n1C[C@@H]1CNC[C@H]2C1` [Cytisinicline], in assay [1], the Cholesterol-free came out at 1.156, the Complete is reported as 0.9676 and the Difference is −0.19. In addition, in assay [2], the “Cholesterol-free media + simvastatin (0.04 μM)” value is on record as 1.003, the “Complete Media” value is listed as 1.015 and the Difference was 0.01.

As to `C[C@H]1O[C@H](OC2[C@@H](O)[C@@H](O)C(O)[C@H](O)[C@H]2O)[C@@H](N)C[C@@H]1N=C(N)C(=O)O.Cl.O` (stereo partly shown) [Kasugamycin (hydrochloride hydrate)], the Difference in assay [1] (Complete minus Cholesterol-free, […]) is recorded as −0.06; in assay [2] (complete media vs cholesterol-free media + simvastatin (0.04 μM), […]) it was −0.14. In addition, in assay [1] (setting [21]), the Cholesterol-free is listed as 1.256. The compound also gave a Complete in assay [1] (setting [22]) of 1.194. In addition, the “Cholesterol-free media + simvastatin (0.04 μM)” value in assay [2] (setting [11]) is 1.288.

For `CC(C)(C)[C@@H]1NC(=O)O[C@@H]2CCC[C@H]2OC/C=C/C(F)(F)c2nc3ccccc3nc2O[C@@H]2C[C@@H](C(=O)N[C@]3(C(=O)NS(=O)(=O)C4(C)CC4)C[C@H]3C(F)F)N(C2)C1=O` [Glecaprevir], the results for the Difference in assay [1] (setting [13]) and in assay [2] (setting [18]) were −0.04 and 0.11, respectively. This compound also yielded a Cholesterol-free in assay [1] (setting [21]) of 0.8867. In assay [1] (setting [22]), this compound returned a Complete of 0.8478. Besides, the “Cholesterol-free media + simvastatin (0.04 μM)” value in assay [2] (setting [16]) is 1.021. Moreover, in assay [2] (setting [17]), the “Complete Media” value is reported as 1.126.

Regarding `CC(Oc1c(Cl)cccc1Cl)C1=NCCN1` (stereo not shown) [Lofexidine], the values for the Difference in assay [1] (setting [3]) and in assay [2] (setting [12]) were −0.14 and −0.27, respectively. In addition, the Cholesterol-free in assay [1] (setting [4]) was 0.8805. The Complete in assay [1] (setting [5]) is 0.7367. Besides, the “Cholesterol-free media + simvastatin (0.04 μM)” value in assay [2] (setting [19]) is given as 1.108. Moreover, the “Complete Media” value in assay [2] (setting [20]) is listed as 0.8401.

On to `COc1ccc2cc3[n+](cc2c1OC)CCc1cc2c(cc1-3)OCO2.[Cl-]` [Berberine (chloride)], for which the values for the Difference in assay [1] (setting [3]) and in assay [2] (setting [18]) were −0.09 and 0.04, respectively. Besides, the Cholesterol-free in assay [1] (setting [4]) is 0.2752. In assay [1] (setting [5]), this compound displayed a Complete of 0.1873. The “Cholesterol-free media + simvastatin (0.04 μM)” value in assay [2] (setting [16]) was found to be 0.3544. In addition, the “Complete Media” value in assay [2] (setting [17]) was determined as 0.3946.

Take `CCC(=O)NS(=O)(=O)c1ccc(-c2c(-c3ccccc3)noc2C)cc1` [Parecoxib (Sodium)]: the Difference in assay [1] (setting [3]) is −0.08; in assay [2] (setting [8]), −1.17. This compound also yielded a Cholesterol-free in assay [1] (setting [4]) of 0.9327. Moreover, in assay [1] (setting [5]), the Complete came out at 0.8551. Besides, in assay [2] (setting [11]), the “Cholesterol-free media + simvastatin (0.04 μM)” value stood at 2.419.

`CC(C)c1ccc2oc3nc(N)c(C(=O)O)cc3c(=O)c2c1` [Amlexanox]: the Cholesterol-free in assay [1] (setting [9]) is reported as 1.264. In assay [1] (NCI-H292 cells, complete media), this compound registered a Complete of 0.8551. Besides, the Difference in assay [1] (setting [10]) is recorded as −0.41; in assay [2] (setting [18]), 0.38. In addition, the “Cholesterol-free media + simvastatin (0.04 μM)” value in assay [2] (setting [11]) worked out at 0.7766. In assay [2] (setting [5]), the “Complete Media” value was 1.161.

In assay [1] (setting [9]), `C/C(=C(\CCOP(=O)(O)O)SC(=O)c1ccccc1)N(C=O)Cc1cnc(C)nc1N` [Benfotiamine] displayed a Cholesterol-free of 1.163. In assay [1] (NCI-H292 cells, complete media), this compound came in with a Complete of 0.7915. In addition, the results for the Difference in assay [1] (setting [10]) and in assay [2] (setting [12]) were −0.37 and −0.15, respectively. In addition, in assay [2] (setting [11]), the “Cholesterol-free media + simvastatin (0.04 μM)” value was 1.23. Further, the “Complete Media” value in assay [2] (setting [5]) was 1.076.

Take `COc1c(N2CCNC(C)C2)c(F)cc2c(=O)c(C(=O)O)cn(C3CC3)c12` (stereo not shown) [Gatifloxacin (hydrochloride)]: the Difference is listed as −0.09 in assay [1] (setting [3]) and −0.16 in assay [2] (setting [12]). The Cholesterol-free in assay [1] (setting [4]) was found to be 1.038. The compound further registered a Complete in assay [1] (setting [5]) of 0.9512. Also, in assay [2] (setting [11]), the “Cholesterol-free media + simvastatin (0.04 μM)” value is 0.9302. Besides, in assay [2] (setting [5]), the “Complete Media” value is 0.7736.

For `COc1c(C)c2c(c(O)c1C/C=C(\C)CCC(=O)OCCN1CCOCC1)C(=O)OC2` [Mycophenolate Mofetil], the Difference in assay [1] (setting [13]) is reported as −0.01; in assay [2] (setting [12]) it was −0.09. Further, the Cholesterol-free in assay [1] (setting [21]) was found to be 0.3372. Also, the Complete in assay [1] (setting [22]) amounted to 0.3232. For the same compound, the “Cholesterol-free media + simvastatin (0.04 μM)” value in assay [2] (setting [11]) stood at 0.7059. Besides, the “Complete Media” value in assay [2] (setting [5]) stood at 0.6206.

In the case of `C=C1CCC2CC1C2(C)C` (stereo not drawn) [β-Pinene], the Difference in assay [1] (setting [13]) is on record as −0.30; in assay [2] (setting [12]), −0.26. The compound further displayed a Cholesterol-free in assay [1] (setting [9]) of 0.968. In assay [1] (NCI-H292 cells, complete media), the Complete stood at 0.6726. For the same compound, the “Cholesterol-free media + simvastatin (0.04 μM)” value in assay [2] (setting [14]) turned out to be 1.724. In addition, the “Complete Media” value in assay [2] (setting [15]) is on record as 1.464.

`C=C[C@@H]1C[C@]1(NC(=O)[C@@H]1C[C@@H](Oc2ncc(OC)c3ccc(Cl)cc23)CN1C(=O)[C@@H](NC(=O)OC(C)(C)C)C(C)(C)C)C(=O)NS(=O)(=O)C1CC1` [Asunaprevir]: the Difference in assay [1] (setting [3]) is given as −0.09; in assay [2] (setting [8]) it was −0.01. Besides, the Cholesterol-free in assay [1] (setting [4]) came to 1.081. Also, in assay [1] (setting [5]), the Complete is given as 0.9902. For the same compound, the “Cholesterol-free media + simvastatin (0.04 μM)” value in assay [2] (setting [6]) is listed as 1.005. In addition, the “Complete Media” value in assay [2] (setting [7]) worked out at 0.9979.

In assay [1] (setting [21]), `NCC(CC(=O)O)c1ccc(Cl)cc1` (stereo not shown) [Baclofen] had a Cholesterol-free of 0.5541. In assay [1] (setting [22]), this compound displayed a Complete of 1.886. Further, the Difference came out at 1.33 in assay [1] (complete vs cholesterol-free media, >0 enhanced anti-cancer activity, about 0 neutral, <0 antagonist) and 0.10 in assay [2] (setting [18]). The “Cholesterol-free media + simvastatin (0.04 μM)” value in assay [2] (setting [16]) is 0.9225. Also, the “Complete Media” value in assay [2] (setting [17]) amounted to 1.02.

In assay [1] (setting [9]), Tandospirone (citrate) showed a Cholesterol-free of 1.167. This compound came in with a Complete in assay [1] (NCI-H292 cells, complete media) of 0.8565. Further, the Difference in assay [1] (setting [10]) was −0.31; in assay [2] (setting [8]), 0.00.
